Experimental data published in BindingDB's records for doi:10.1016/j.bmcl.2003.09.058 (Pharmacor, 2003).
pKi: −log10 of the molar value.

These compounds were tested against T1, Dimer of Gag-Pol polyprotein [501-599] (Human immunodeficiency virus 1, UniProt P03367) (assay: Protease Inhibition Assay). Details: pH 4.7; 30 °C.
T1 construct: 501-599
Procedure: HIV-1 protease activity was measured by a continuous fluorometric assay using the internally quenched fluorogenic substrate DABCYL-Ser-Gln-Asn-Tyr-Pro-Ile-Val-Gln-EDANS. The proteolytic activity can be monitored by the increase in fluorescence intensity, and the protease products were analyzed by HPLC.
Cc1ccc(S(=O)(=O)N(CC(C)C)[C@@H](CCCCNC(=O)OCc2ccccc2)C(=O)O)cc1 [(2S)-6-{[(benzyloxy)carbonyl]amino}-2-[(4-methylbenzene)(2-methylpropyl)sulfonamido]hexanoic acid] was tested, and the pKi was under 6.52. For Cc1ccc(S(=O)(=O)N(CC(C)C)[C@@H](CCCCNC(=O)/C=C/c2ccccc2)C(=O)O)cc1 [(2S)-2-[(4-methylbenzene)(2-methylpropyl)sulfonamido]-6-[(2E)-3-phenylprop-2-enamido]hexanoic acid], the pKi was under 6.52. Compound Cc1ccc(S(=O)(=O)N(CC(C)C)[C@@H](CCCCNC(=O)C2CC2c2ccccc2)C(=O)O)cc1 (stereo partly drawn) [(2S)-2-[(4-methylbenzene)(2-methylpropyl)sulfonamido]-6-[(2-phenylcyclopropyl)formamido]hexanoic acid] has a pKi of under 6.52. Work on Cc1ccc(S(=O)(=O)N(CC(C)C)[C@@H](CCCCNC(=O)CCCc2ccccc2)C(=O)O)cc1 [(2S)-2-[(4-methylbenzene)(2-methylpropyl)sulfonamido]-6-(4-phenylbutanamido)hexanoic acid] yielded a pKi of under 6.52. With Cc1ccc(S(=O)(=O)N(CC(C)C)[C@@H](CCCCNC(=O)C(Cc2ccccc2)C(C)(C)C)C(=O)O)cc1 (stereo partly drawn) [(2S)-6-(2-benzyl-3,3-dimethylbutanamido)-2-[(4-methylbenzene)(2-methylpropyl)sulfonamido]hexanoic acid] the pKi was under 6.52. Cc1ccc(S(=O)(=O)N(CC(C)C)[C@@H](CCCCNC(=O)Cc2ccccc2)C(=O)O)cc1 [(2S)-2-[(4-methylbenzene)(2-methylpropyl)sulfonamido]-6-(1-phenylacetamido)hexanoic acid] was tested, and the pKi was under 6.52. Compound Cc1ccc(S(=O)(=O)N(CC(C)C)[C@@H](CCCCNC(=O)c2ccccc2)C(=O)O)cc1 [(2S)-2-[(4-methylbenzene)(2-methylpropyl)sulfonamido]-6-(phenylformamido)hexanoic acid] has a pKi of under 6.52.
